Assay results reported in patent US8569349B2, “Therapeutic compounds” (Allergan, Inc., priority 2008, dated 2013).

Tested on: lashes and adjacent hairs of the eyelids
Assay: Observation of lashes and adjacent hairs in glaucoma patients taking bimatoprost in only one eye
Format: in vivo
Text: In the course of treating patients having glaucoma, treatment may only be appropriate in one eye. […] The lash appearance on the lids of the treated eyes would have appeared quite attractive if it represented a bilateral phenomenon. As a result of its asymmetric nature, the long lashes on one side could be construed as disturbing from a cosmetic standpoint. A systemic examination was preformed as a result of the asymmetric phenomenon. It soon became apparent that this altered appearance was not an isolated finding. […] Definite differences could be identified to varying degrees in the lashes and adjacent hairs of all patients who were taking the drug on a unilateral basis for longer than 6 months.
The changes in the lashes were apparent on gross inspection in several patients once attention was focused on the issue. In those with light colored hair and lashes, the differences were only seen easily with the aid of the high magnification and lighting capabilities of the slit lamp biomicroscope. In the course of glaucoma follow-up examination, attention is generally immediately focused on the eye itself. As a result of the high power magnification needed only one eye is seen at a time and the eye is seen at a high enough power that the lashes are not in focus. […]

**Q.** With `CCNC(=O)CCC/C=C\C[C@@H]1[C@@H](/C=C/[C@@H](O)CCc2ccccc2)[C@H](O)C[C@@H]1O` [bimatoprost] as the compound, how does the “lashes in the treated eye compared with the non-treated eye” value (glaucoma patient treated in one eye) read?
**A.** Its value is “longer, thicker, and fuller”.

**Q.** What about the “hair growth in treated versus control areas” value (multiple parameters of hair appearance, many subjects) of the same compound?
**A.** The value was “stimulated”.
